Assay results: patent publication US20200032125A1, “COMBINED USES OF A PHOSPHOROUS COMPOUND FOR IRON SULPHIDE DISSOLUTION AND BACTERIAL CONTROL” (RHODIA OPERATIONS, priority 2016, published 2020)

Tested on: general heterotrophic bacteria (GHB)
Conditions: iron sulphide present; same level of THPS as the control

## tetrakis (hydroxymethyl) phosphonium sulphate [THPS]
  bacterial kill (reduction in colony forming units per ml) versus control sample without iron sulphide: bacterial kill is still achieved
